Test results reported in patent US10015966B2, “Fungicidal pyrazole mixtures” (E I DU PONT DE NEMOURS AND COMPANY, priority 2012, dated 2018).
Like-named read-outs stand apart in the source and are kept apart here. Marks after values point to notes of the source that are not given here.

Assays:
Format in all cases: in vivo
[1] = system: Rhizoctonia solani; test: Test D: preventive spray on creeping bent grass seedlings, turf brown patch, disease rating; conditions: 200 ppm test suspension
Experimental: General protocol for preparing test suspensions for Tests A-I: the test compounds were first dissolved in acetone in an amount equal to 3% of the final volume and then suspended at the desired concentration (in ppm) in acetone and purified water (50/50 mix by volume) containing 250 ppm of the surfactant Trem® 014 (polyhydric alcohol esters). The resulting test suspensions were then used in Tests A-I. Each test was conducted in triplicate, and the results were averaged. Spraying a 200 ppm test suspension to the point of run-off on the test plants was the equivalent of a rate of about 800 g/ha. Unless otherwise indicated, the rating values indicate a 200 ppm test suspension was used. (An asterisk “*” next to the rating value indicates a 40 ppm test suspension was used.) The test suspension was sprayed to the point of run-off on creeping bent grass (Agrostis sp.) seedlings. The following day the seedlings were inoculated with a bran and mycelial slurry of Rhizoctonia solani (the causal agent of turf brown patch) and incubated in a saturated atmosphere at 27° C. for 48 h, and then moved to a growth chamber at 27° C. for 3 days, after which time disease ratings were made. Results for Tests A-I are given in Table A. In the Table, a rating of 100 indicates 100% disease control and a rating of 0 indicates no disease control (relative to the controls). A hyphen (-) indicates no test results.

[2] = system: Botrytis cinerea; test: Test A: preventive spray on tomato seedlings, tomato Botrytis, visual disease rating; conditions: 200 ppm test suspension
Experimental: General protocol for preparing test suspensions for Tests A-I: the test compounds were first dissolved in acetone in an amount equal to 3% of the final volume and then suspended at the desired concentration (in ppm) in acetone and purified water (50/50 mix by volume) containing 250 ppm of the surfactant Trem® 014 (polyhydric alcohol esters). The resulting test suspensions were then used in Tests A-I. Each test was conducted in triplicate, and the results were averaged. Spraying a 200 ppm test suspension to the point of run-off on the test plants was the equivalent of a rate of about 800 g/ha. Unless otherwise indicated, the rating values indicate a 200 ppm test suspension was used. (An asterisk “*” next to the rating value indicates a 40 ppm test suspension was used.) The test suspension was sprayed to the point of run-off on tomato seedlings. The following day the seedlings were inoculated with a spore suspension of Botrytis cinerea (the causal agent of tomato Botrytis) and incubated in saturated atmosphere at 20° C. for 48 h, and then moved to a growth chamber at 24° C. for 3 additional days, after which time visual disease ratings were made. Results for Tests A-I are given in Table A. In the Table, a rating of 100 indicates 100% disease control and a rating of 0 indicates no disease control (relative to the controls). A hyphen (-) indicates no test results.

[3] = system: Phytophthora infestans; conditions: tomato late blight
[4] = system: Puccinia recondita f. sp. tritici; test: Test G: curative spray on inoculated wheat seedlings, wheat leaf rust, visual disease rating; conditions: 200 ppm test suspension
Experimental: General protocol for preparing test suspensions for Tests A-I: the test compounds were first dissolved in acetone in an amount equal to 3% of the final volume and then suspended at the desired concentration (in ppm) in acetone and purified water (50/50 mix by volume) containing 250 ppm of the surfactant Trem® 014 (polyhydric alcohol esters). The resulting test suspensions were then used in Tests A-I. Each test was conducted in triplicate, and the results were averaged. Spraying a 200 ppm test suspension to the point of run-off on the test plants was the equivalent of a rate of about 800 g/ha. Unless otherwise indicated, the rating values indicate a 200 ppm test suspension was used. (An asterisk “*” next to the rating value indicates a 40 ppm test suspension was used.) Wheat seedlings were inoculated with a spore suspension of Puccinia recondita f. sp. tritici (the causal agent of wheat leaf rust) and incubated in a saturated atmosphere at 20° C. for 24 h, and then moved to a growth chamber at 20° C. for 2 days. At the end of this time the test suspension was sprayed to the point of run-off, and then the seedlings were moved to a growth chamber at 20° C. for 4 days after which time visual disease ratings were made. […]

[5] = Single oral dose pharmacokinetics in rats, plasma and fat analysed by LC/MS (fat:plasma ratio); conditions: single dose via oral gavage, compared to corresponding compounds with a nonhydrogen substituent at the para position of the phenyl ring connected to R^1 and R^2
Experimental: The pharmacokinetic properties of compounds of Formula 1 can be measured using a wide variety of assay protocols known in the science of pharmacology. In one illustrative method involving a single oral dose, three male and three female rats receive a single dose of a test substance via oral gavage. Approximately 0.25 mL of blood is collected via tail vein immediately prior to dosing, and then at 0.25, 0.5, 1, 2, 4, 8, 12, 24 h and every 24 h thereafter until sacrifice. At sacrifice, fat is also collected to determine the fat:plasma ratio at sacrifice. Blood is collected into tubes that contain ethylenediaminetetracetic acid (EDTA) and centrifuged at 2500×g in order to separate plasma from blood cells. The plasma is then extracted by protein precipitation using, for example, acetonitrile and a protein precipitation plate (e.g., Strata Impact Protein Precipitation Plate, part number CEO-7565 of Phenomenex, Torrance, Calif., U.S.A.) following directions provided for the plate. Alternatively, the plasma is extracted just with acetonitrile, vortexed (i.e. mixed using a vortex mixer), and centrifuged to pellet the proteins. After removal of the proteins, the plasma is analyzed for parent compound and/or metabolites by liquid chromatography-mass spectrometry (LC/MS). The fat is homogenized and extracted by an organic solvent such as acetonitrile. The extract is then analyzed for parent compound and/or metabolites by LC/MS. The plasma pharmacokinetic data is then analyzed using nonlinear modeling software (e.g., WinNonlin™ from Pharsight, Cary, N.C., U.S.A.) to determine half-life of the administered compound in plasma, the time after administration when the maximum plasma concentration is reached (Tmax), the maximum plasma concentration (Cmax) and the area under the plasma concentration curve (AUC). As analysis of fat requires rat sacrifice, fat data is obtained at single time points (i.e. the time of rat sacrifice). However, by using multiple rats sacrificed after different intervals from time of dosing, such parameters as Cmax for fat are determined.

In the case of `Cc1nn(C)c(Nc2ccccc2F)c1-c1ccc(F)cc1Cl` [Compound 1, 4-(2-chloro-4-fluorophenyl)-N-(2-fluorophenyl)-1,3-dimethyl-1H-pyrazol-5-amine], the “Test D rating (% disease control)” value [1] is reported as 99%, the pest or weed control at 200 ppm [2] is reported as 99% and the “Test C rating (% disease control)” value ([3]; 200 ppm test suspension, preventive spray) is reported as 0%.

For `Cc1nn(C)c(Nc2c(F)cccc2F)c1-c1ccc(F)cc1Cl` [Compound 2, 4-(2-chloro-4-fluorophenyl)-N-(2,6-difluorophenyl)-1,3-dimethyl-1H-pyrazol-5-amine], the “Test G rating (% disease control)” value [4] was 0% and the pest or weed control at 200 ppm [2] was 100%.

With `Cc1nn(C)c(Nc2c(F)cccc2Cl)c1-c1ccc(F)cc1Cl` [Compound 3, 4-(2-chloro-4-fluorophenyl)-N-(2-chloro-6-fluorophenyl)-1,3-dimethyl-1H-pyrazol-5-amine] the “Test G rating (% disease control)” value [4] was 100%, the pest or weed control at 200 ppm [2] was 100% and the distribution into fat [5] was “significantly diminished distribution into fat”. The “Test C rating (% disease control)” value ([3]; asterisked rating: test suspension other than 200 ppm) was 0* %.
